The test system of data set [1] is human erythrocytes. The data set can be described thus: Hemolytic activity against human erythrocytes. It is filed as cell-based. As to conditions: for ED50, Erythrocytes (hemolytic activity): 1 h at 37 °C.
The nature of data set [2]: in vitro. It is filed as cell-based, human. The settings on record: human.
Data set [3] relates to MCF-7 human breast cancer cells. The data set can be described thus: cells. It is filed as cell-based.
Data set [4] concerns T-47D human breast cancer cells. Nature of the data set: cells. As to conditions: for IC50: read-out: Cytotoxicity, IC50, T-47D. It is filed as cell-based.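 On all read-outs here: cell viability read as absorbance of formazan dye at 570 nm, each experiment run in triplicate.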
Data set [5] concerns MDA-MB-231 triple-negative breast cancer cells. Nature of the data set: cells. It is filed as cell-based, human.
The subject of data set [6] is MCF-10A non-tumor mammary epithelial cell line. The data set can be described thus: in vitro. It is filed as cell-based, human. As to conditions: MTT assay, MCF-10A; read-out: Cytotoxicity, IC50, MCF-10A. Background: Formazan colour is commonly taken as a measure of viable cells.
The mark [7] stands for this setting: Homo sapiens, MCF7, read-out: Cytotoxicity, IC50, MCF-7.
[8] abbreviates: Homo sapiens, MDA-MB-231, read-out: Cytotoxicity, IC50, MDA-MB-231.

The structures appear in SMILES notation. Structures can show the parent of a compound that is named as a salt. Where two headings read alike, the source gives them in different places. Some results are limits rather than exact numbers.

This is an account of results in article PMC12299463, “Cladolosides of Groups S and T: Triterpene Glycosides from the Sea Cucumber Cladolabes schmeltzii with Unique Sulfation; Human Breast Cancer Cytotoxicity and QSAR” (Marine Drugs, 2025).

One may read the IC50 as the concentration that inhibits the measured activity by half.
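Wherever Cytotoxicity, IC50, MCF-7 is given: IC50 values, including those behind the selectivity ratio, derive from formazan absorbance at 570 nm, tested in triplicate.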

In the case of `C=C(C)CC[C@@H](OC(C)=O)[C@]1(C)OC(=O)C23CC=C4[C@@H](CC[C@H]5C(C)(C)[C@@H](O[C@@H]6OC[C@@H](O[C@@H]7OC[C@@H](O)[C@H](O)[C@H]7O)[C@H](O)[C@H]6O[C@@H]6O[C@H](C)[C@@H](O[C@@H]7OC[C@@H](O)[C@H](O[C@@H]8O[C@H](COS(=O)(=O)O)[C@@H](O)[C@H](OC)[C@H]8O)[C@H]7O)[C@H](O)[C@H]6O)CC[C@]45C)[C@]2(C)C[C@H](OC(C)=O)[C@@H]31` (stereo partly drawn) [Cladoloside S (1), 3β-O-{6-O-sodium sulfate-3-O-methyl-β-D-glucopyranosyl-(1→3)-β-D-xylopyranosyl-(1→4)-β-D-quinovopyranosyl-(1→2)-[(1→4)-β-D-xylopyranosyl]-β-D-xylopyranosyl}-16S,22R-diacetoxyholosta-9,25-diene], the “Hemolytic (membranolytic) activity, in words” value (“Hemolytic … in words” below) in data set [1] is reported as “moderately active”. Also, the “ED50, Erythrocytes (hemolytic activity)” value in data set [1] was determined as 3.40 ± 0.25 µM. Also, the half-maximal inhibitory concentration (IC50) is greater than 20 µM in data set [2]; greater than 20 µM in data set [3] (setting [7]); 14.8 ± 0.71 µM in data set [4] (Homo sapiens, T47D); 13.2 ± 1.08 µM in data set [5] (setting [8]). Further, in data set [4] (ratio of IC50 for healthy (MCF-10A) and T-47D cells), the “Selectivity Index (SI), T-47D” value was greater than 1.35. Moreover, the “Selectivity Index (SI), MDA-MB-231” value in data set [5] (ratio of IC50 for healthy (MCF-10A) and MDA-MB-231 cells) is reported as greater than 1.51.
On to `CO[C@@H]1[C@@H](O)[C@H](O[C@@H]2[C@@H](O)[C@H](O[C@H]3[C@H](O)[C@@H](O)[C@H](O[C@H]4[C@H](O[C@H]5CC[C@]6(C)C7=CCC89C(=O)O[C@@](C)([C@@H](CCC(C)C)OC(C)=O)[C@H]8[C@@H](OC(C)=O)C[C@@]9(C)[C@@H]7CC[C@H]6C5(C)C)OC[C@@H](O[C@@H]5OC[C@@H](O)[C@H](O)[C@H]5O)[C@@H]4O)O[C@@H]3C)OC[C@H]2O)O[C@H](COS(=O)(=O)O)[C@H]1O` (stereo partly drawn) [Cladoloside S1 (2), 3β-O-{6-O-sodium sulfate-3-O-methyl-β-D-glucopyranosyl-(1→3)-β-D-xylopyranosyl-(1→4)-β-D-quinovopyranosyl-(1→2)-[(1→4)-β-D-xylopyranosyl]-β-D-xylopyranosyl}-16S,22R-diacetoxyholost-9-en], for which, in data set [1], the “Hemolytic … in words” value is “moderately active”. In data set [1], the “ED50, Erythrocytes (hemolytic activity)” value came to 4.78 ± 0.30 µM. For the same compound, the 50% inhibitory concentration (IC50) in data set [2] is greater than 20 µM; in data set [3] (setting [7]), greater than 20 µM; in data set [4] (Homo sapiens, T47D), greater than 20 µM; in data set [5] (setting [8]), greater than 20 µM.
In the case of `C=C(C)CC[C@@H](OC(C)=O)[C@]1(C)OC(=O)C23CC=C4[C@@H](CC[C@H]5C(C)(C)[C@@H](O[C@@H]6OC[C@@H](O)[C@H](O)[C@H]6O[C@@H]6O[C@H](C)[C@@H](O[C@@H]7OC[C@@H](O)[C@H](O[C@@H]8O[C@H](CO)[C@@H](O)[C@H](OC)[C@H]8O)[C@H]7O)[C@H](O)[C@H]6O)CC[C@]45C)[C@]2(C)C[C@H](OC(C)=O)[C@@H]31` (some centres unmarked) [A2 (6), cladoloside A2], the “Hemolytic … in words” value in data set [1] was “moderate activity”. Also, in data set [1], the “ED50, Erythrocytes (hemolytic activity)” value is on record as 2.78 ± 0.32 µM. Moreover, the 50% inhibitory concentration (IC50) in data set [6] was greater than 20 µM; in data set [3] (MTT assay, MCF-7, read-out: Cytotoxicity, IC50, MCF-7), greater than 20 µM; in data set [4] (MTT assay, T-47D) it was greater than 20 µM; in data set [5] (MTT assay, MDA-MB-231, read-out: Cytotoxicity, IC50, MDA-MB-231), greater than 20 µM.
